Assay: Skin penetration of Compound (I) into the dermis and epidermis
Format: in vitro ADME
Conditions: human abdominal skin from elective surgery (500±50 μm)
Method: Using skin from one donor (n=4-5 replicates per condition) and a receptor solution comprising phosphate/citrate buffer pH 5.6 with 0.01% Brij 98, a dose of 10 mg/cm^2 Compound (I) was applied in the form of one of three 2% Compound (I) gel formulations comprising one of crystalline Form (I), amorphous Compound (I), or crystalline Form (II). Samples were collected every 3 hours for 24 hours. Prior to separating the epidermis and dermis, the residual formulation was removed from the surface of the skin, and then the skin surface was tape stripped up to 5 times to remove residual formulation and the top of the skin surface layers (stratum corneum). The dermis and epidermis were separated by heating to 60° C. for 2 minutes, followed by manual separation using forceps. The extraction fluid used was 90:10 acetonitrile:water with 0.1% BHT. Epidermis and dermis samples were homogenized, then shaken at 130 RPM overnight, and transferred to lo-bind DW96 plates.

ability to penetrate skin into the dermis and epidermis: able to penetrate
Structure (SMILES): CC(C)(C)C=C(C#N)C(=O)N1CCCC(n2nc(-c3ccc(Oc4ccccc4)cc3F)c3c(N)ncnc32)C1 (stereo not shown) [Compound (I), 2-(3-(4-amino-3-(2-fluoro-4-phenoxyphenyl)-1H-pyrazolo[3,4-d]pyrimidin-1-yl)piperidine-1-carbonyl)-4,4-dimethylpent-2-enenitrile]

Reference: US11583533B2, “Topical pharmaceutical compositions comprising 2-[3-[4-amino-3-(2-fluoro-4-phenoxy-phenyl)-1H-pyrazolo[3,4-d]pyrimidin-1-yl]piperidine-1-carbonyl]-4,4-dimethylpent-2-enenitrile” (Principia Biopharma Inc., priority 2020, dated 2023)
